From patent US20260097047A1, “Small molecule inhibitors of the ribosome biogenesis factor NVL2” (Board of Regents, The University of Texas System, priority 2023, published 2026)

Tested on: HCT116 cells
Assay: Cell viability assay (CellTiter-Glo, 72 hours) in HCT116 human colorectal cancer cells
Format: cell-based
Details: Table 8; analogs of scaffold drawing 43 defined by R^2, R^3, X/Y, W; read-out: Activity (IC50 class, cell viability assay)
Procedure, shortened: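 2,000 cells/well adhered overnight, then compound added by digital dispenser with DMSO normalized to 0.5%. Viability read after 72 h at 37 °C by ATP-based CellTiter-Glo luminescence. IC50 from ten-point curves baseline-corrected to vehicle, five-parameter asymmetric least-squares fit.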

Row | Compound | IC50 [nM]
1 | CC#CCN1C(=O)c2ccc(Cl)cc2Sc2cc(NC(=O)CC3COC3)cnc21 [—CH2CCMe; (oxetan-3-yl)CH2; CCl/CH; N] | < 500
2 | CC#CCN1C(=O)c2ccc(F)cc2Sc2cc(NC(=O)CC3COC3)ccc21 [—CH2CCMe; (oxetan-3-yl)CH2; CF/CH; CH] | < 500
3 | CC#CCN1C(=O)c2ccccc2Sc2cc(NC(=O)CC3COC3)ccc21 [—CH2CCMe; (oxetan-3-yl)CH2; CH/CH; CH] | < 500
4 | CC#CCN1C(=O)c2ccccc2Sc2cc(NC(=O)CC3COC3)cnc21 [—CH2CCMe; (oxetan-3-yl)CH2; CH/CH; N] | < 500
5 | CC#CCN1C(=O)c2ccccc2Sc2cc(NC(=O)C#CCOC)ccc21 [—CH2CCMe; CCCH2OMe; CH/CH; CH] | 500 to 1000
6 | CC#CCN1C(=O)c2ccccc2Sc2cc(NC(=O)C#CC)ccc21 [—CH2CCMe; CCMe; CH/CH; CH] | < 500
7 | CC#CCN1C(=O)c2ccccc2Sc2cc(NC(=O)C=CCO)ccc21 [—CH2CCMe; CH—CHCH2OH; CH/CH; CH] | < 500
8 | CC#CCN1C(=O)c2ccccc2Sc2cc(NC(=O)C=CCOC)cnc21 [—CH2CCMe; CH—CHCH2OMe; CH/CH; N] | < 500
9 | CC#CCN1C(=O)c2ccc(Cl)cc2Sc2cc(NC(=O)C=CCO)cnc21 [—CH2CCMe; CH—═CHCH2OH; CCI/CH; N] | < 500
10 | CC#CCN1C(=O)c2ccc(C#N)cc2Sc2cc(NC(=O)C=CCOC)ccc21 [—CH2CCMe; CH—═CHCH2OMe; CCN/CH; CH] | < 500
11 | CC#CCN1C(=O)c2ccc(Cl)cc2Sc2cc(NC(=O)C=CCOC)cnc21 [—CH2CCMe; CH—═CHCH2OMe; CCl/CH; N] | < 500
12 | CC#CCN1C(=O)c2cc(F)ccc2Sc2cc(NC(=O)C=CCOC)ccc21 [—CH2CCMe; CH—═CHCH2OMe; CH/CF; CH] | < 500
13 | CC#CCN1C(=O)c2cc(F)ccc2Sc2cc(NC(=O)C=CCOC)cnc21 [—CH2CCMe; CH—═CHCH2OMe; CH/CF; N] | < 500
14 | CC#CCN1C(=O)c2ccc(Cl)cc2Sc2cc(NC(=O)C=CCO)ccc21 [—CH2CCMe; CH═CHCH2OH; CCI/CH; CH] | < 500
15 | CC#CCN1C(=O)c2cc(F)ccc2Sc2cc(NC(=O)C=CCO)ccc21 [—CH2CCMe; CH═CHCH2OH; CH/CF; CH] | < 500
16 | CC#CCN1C(=O)c2cc(F)ccc2Sc2cc(NC(=O)C=CCO)cnc21 [—CH2CCMe; CH═CHCH2OH; CH/CF; N] | < 500
17 | CC#CCN1C(=O)c2ccccc2Sc2cc(NC(=O)C=CCOC)ccc21 [—CH2CCMe; CH═CHCH2OMe; CH/CH; CH] | < 500
18 | CC#CCN1C(=O)c2ccc(Cl)cc2Sc2cc(NC(=O)C(C)CCOC)ccc21 (stereo not shown) [—CH2CCMe; MeO(CH2)2CHMe-; CCI/CH; CH] | < 500
19 | CC#CCN1C(=O)c2cc(F)ccc2Sc2cc(NC(=O)C(C)CCOC)ccc21 (stereo not shown) [—CH2CCMe; MeO(CH2)2CHMe-; CH/CF; CH] | < 500
20 | CC#CCN1C(=O)c2ccccc2Sc2cc(NC(=O)C(C)CCOC)ccc21 (stereo not shown) [—CH2CCMe; MeO(CH2)2CHMe-; CH/CH; CH] | < 500
21 | CC#CCN1C(=O)c2ccccc2Sc2cc(NC(=O)C(C)CCOC)cnc21 (stereo not shown) [—CH2CCMe; MeO(CH2)2CHMe-; CH/CH; N] | < 500
22 | CC#CCN1C(=O)c2ccc(Cl)cc2Sc2cc(NC(=O)NCCOC)ccc21 [—CH2CCMe; NH(CH2)2OMe; CCl/CH; CH] | < 500
23 | CC#CCN1C(=O)c2ccc(Cl)cc2Sc2cc(NC(=O)NCCOC)cnc21 [—CH2CCMe; NH(CH2)2OMe; CCl/CH; N] | < 500
24 | CC#CCN1C(=O)c2ccccc2Sc2cc(NC(=O)NCCOC)ccc21 [—CH2CCMe; NH(CH2)2OMe; CH/CH; CH] | < 500
25 | CC#CCN1C(=O)c2ccccc2Sc2cc(NC(=O)NCCOC)cnc21 [—CH2CCMe; NH(CH2)2OMe; CH/CH; N] | < 500
26 | CC#CCN1C(=O)c2ccc(Cl)cc2Sc2cc(NC(=O)OCCOC)ccc21 [—CH2CCMe; O(CH2)2OMe; CCl/CH; CH] | < 500
27 | CC#CCN1C(=O)c2cc(F)ccc2Sc2cc(NC(=O)OCCOC)ccc21 [—CH2CCMe; O(CH2)2OMe; CH/CF; CH] | < 500
28 | CC#CCN1C(=O)c2ccccc2Sc2cc(NC(=O)OCCOC)ccc21 [—CH2CCMe; O(CH2)2OMe; CH/CH; CH] | < 500
